# Measured values taken from patent publication US7563862B2, “Neural regeneration peptides and methods for their use in treatment of brain damage” (Neuren Pharmaceuticals Limited, priority 2001, dated 2009).
# Where “and” joins values, the source holds several entries; their conditions need not be identical. Equal values may be shown once. Ends that are not written are not given here.
# Tests used:
# [1] = test system: thalamic parvalbumin-ir neurons; experiment: BrdU/parvalbumin proliferation within thalamocortical OTCs; assay type: cell-based, rat; conditions: 3 nM
# Experimental: Thalamocortical OTCs from rats, as described above in Examples 3 and 4 were incubated at the start of cultivation with 2 μM of BrdU that was removed after 24 hours of cultivation time. OTCs were fixed in 4% paraformaldehyde in 0.1 M phosphate buffer (pH 7.4). Blocking was done in 0.4% Triton and 10% normal goat serum in PBS for 30 minutes. Subsequently the cultures were treated for 30 minutes in 2N HCl at 37° C. and neutralized by 0.1 M Na2B4O7 for 2×5 minutes. Internal peroxidase activity was prevented by 5 minute treatment of the OTCs in 1% H2O2 (only in case of the PAP reaction). Primary antibody (mouse anti-BrdU 1/50-Sigma) reaction was done overnight in 0.4% Triton, 2% BSA in PBS.
# Biotinylated goat anti-mouse IgG was applied (1/200 for 2 h) with the subsequent application of the avidin biotin horseradish peroxidase system and the final DAB-detection (0.05%); 0.009% H2O2 enhanced by 0.025% cobalt chloride and 0.02% nickel ammonium sulphate. BrdU-positive nuclei become black stained. […] For double fluorescence detection, mouse anti-BrdU IgG and rabbit anti-parvalbumin IgG (or rabbit anti-calretinin 1/1000) were given simultaneously after the neutralisation step and anti-parvalbumin antibody binding was detected by the biotin-streptavidin/Cy2 detection system while the occurrence of BrdU was monitored by an anti-mouse/Cy3 IgG. […]
# [2] = test system: embryonic cortical cells; experiment: haptotactic migration assay, cortical cells; assay type: cell-based, rat; conditions: 1 day in vitro
# From the text: To test the cell adhesion and neuronal migration inducing properties of the NRPs a haptotactic migration cell assay was developed (Lu et al.,2001). For this purpose Transwell® cell culture dishes (Costar) with fitting inserts having pores therein with a 12 μm pore size were used to cultivate striatal and neocortical cells. In general, a test agent was adhered to the surface of a culture dish and an insert having pores was placed in culture medium over but not in contact with the surface of the culture dish. Test cells were placed in the inserts, and any cells migrating through the pores and onto the surface of the culture dish reflected chemattractiveness by the test molecule. Under these conditions, the surface of the culture dish would, over time, release some NRP molecules into the culture medium. It can be appreciated that the concentration of “free” NRP would be greater nearer the surface of the culture dish than at distances farther away from the culture dish, thereby creating a gradient in NRP concentration. […] By counting the number and morphology of such migrant cells, effects of NRPs on neuronal migration and differentiation can be evaluated. […]
# For seeding striatal cells, 1.5 ml of Neurobasal/B27 medium was put into the culture dishes and 0.5 ml of NeurobasaVB27 medium was put into the insert. The assay was ready for cell seeding. […]
Substance,parvalbumin-ir thalamic neurons co-localised with BrdU ([1]; 5 days in vitro),enhanced proliferation of parvalbumin expressing neurons compared to controls ([1]; vs defined medium alone),"more neurons migrated to the culture dish bottom compared to BSA control ([2]; 15 ng immobilized, 1 pg/ml in medium)",number of cells with neurite outgrowth ([2]; 0.1 and 1 μg/ml coating in BSA)
"NRP-1: rat 16 amino acid neural regeneration peptide purified from hippocampal OTC supernatant, Tyr Asp Pro Glu ... Cys His-NH2 (YDPEAASAPGSGNPCH-NH2)",6.8±1.3% and 6.8%,up to 150%,,
"SEPEARRAPGRKGGVVCASLAADW-NH2 [NRP-7 segment SW, 24-mer form of mouse NRP-7]",,,49.8%,significantly increased
